The results in this text go back to PubChem BioAssay AID1259407 (Chemical Carcinogenesis Research Information System (CCRIS), 2018).

Activity calls are given as the source filed them. The rule behind the calls is not given here.

This data set concerns CCRIS mutagenicity, Ames/micronucleus/aberration tests. The data set is described as follows: CCRIS mutagenicity studies.
Setting [1] is: Test System: AMES SALMONELLA TYPHIMURIUM, Strain/Indicator: TA98, Metabolic Activation: NONE, Method: STANDARD PLATE.
[2] abbreviates: Test System: AMES SALMONELLA TYPHIMURIUM, Strain/Indicator: TA100, Metabolic Activation: NONE, Method: STANDARD PLATE.
[3] abbreviates: Test System: AMES SALMONELLA TYPHIMURIUM, Strain/Indicator: TA1537, Metabolic Activation: NONE, Method: STANDARD PLATE.

Take `c1ccc(NNc2ccccc2)cc1`: the mutagenic call by setting is: (End Point: IN VITRO CHROMOSOMAL ABERRATIONS, Test System: CHINESE HAMSTER OVARY CELLS, Metabolic Activation: NONE) “active; positive; statistically significant increase, but not dose-related”; (End Point: IN VITRO CHROMOSOMAL ABERRATIONS, Test System: CHINESE HAMSTER OVARY CELLS, Metabolic Activation: RAT, LIVER, S-9, AROCLOR 1254) “active; positive”; (Test System: AMES SALMONELLA TYPHIMURIUM, Strain/Indicator: TA98, Metabolic Activation: HAMSTER, LIVER, S-9, AROCLOR 1254, Method: STANDARD PLATE) “inactive; negative”; (Test System: AMES SALMONELLA TYPHIMURIUM, Strain/Indicator: TA98, Metabolic Activation: HAMSTER, LIVER, S-9, Method: STANDARD PLATE) “inactive; negative”; (Test System: AMES SALMONELLA TYPHIMURIUM, Strain/Indicator: TA98, Metabolic Activation: MOUSE, LIVER, S-9, AROCLOR 1254, Method: STANDARD PLATE) “inactive; negative”; (Test System: AMES SALMONELLA TYPHIMURIUM, Strain/Indicator: TA98, Metabolic Activation: MOUSE, LIVER, S-9, Method: STANDARD PLATE) “inactive; negative”. The mutagenic call is, setting by setting: under setting [1], “inactive; negative”; (Test System: AMES SALMONELLA TYPHIMURIUM, Strain/Indicator: TA98, Metabolic Activation: RAT, LIVER, S-9, Method: STANDARD PLATE) “inactive; negative”; (Test System: AMES SALMONELLA TYPHIMURIUM, Strain/Indicator: TA100, Metabolic Activation: HAMSTER, LIVER, S-9, AROCLOR 1254, Method: STANDARD PLATE) “inactive; negative”; (Test System: AMES SALMONELLA TYPHIMURIUM, Strain/Indicator: TA100, Metabolic Activation: HAMSTER, LIVER, S-9, Method: STANDARD PLATE) “inactive; negative”; (Test System: AMES SALMONELLA TYPHIMURIUM, Strain/Indicator: TA100, Metabolic Activation: MOUSE, LIVER, S-9, AROCLOR 1254, Method: STANDARD PLATE) “active; positive”; (Test System: AMES SALMONELLA TYPHIMURIUM, Strain/Indicator: TA100, Metabolic Activation: MOUSE, LIVER, S-9, Method: STANDARD PLATE) “inactive; negative”. In addition, the mutagenic call runs as follows: under setting [2], “inactive; negative”; (Test System: AMES SALMONELLA TYPHIMURIUM, Strain/Indicator: TA100, Metabolic Activation: RAT, LIVER, S-9, AROCLOR 1254, Method: STANDARD PLATE) “active; positive”; (Test System: AMES SALMONELLA TYPHIMURIUM, Strain/Indicator: TA100, Metabolic Activation: RAT, LIVER, S-9, Method: STANDARD PLATE) “inactive; negative”; (Test System: AMES SALMONELLA TYPHIMURIUM, Strain/Indicator: TA1535, Metabolic Activation: HAMSTER, LIVER, S-9, AROCLOR 1254, Method: STANDARD PLATE) “inactive; negative”; (Test System: AMES SALMONELLA TYPHIMURIUM, Strain/Indicator: TA1535, Metabolic Activation: HAMSTER, LIVER, S-9, Method: STANDARD PLATE) “inactive; negative”; (Test System: AMES SALMONELLA TYPHIMURIUM, Strain/Indicator: TA1535, Metabolic Activation: MOUSE, LIVER, S-9, Method: STANDARD PLATE) “inactive; negative”. In addition, the mutagenic call runs as follows: (Test System: AMES SALMONELLA TYPHIMURIUM, Strain/Indicator: TA1535, Metabolic Activation: NONE, Method: STANDARD PLATE) “inactive; negative”; (Test System: AMES SALMONELLA TYPHIMURIUM, Strain/Indicator: TA1535, Metabolic Activation: RAT, LIVER, S-9, AROCLOR 1254, Method: STANDARD PLATE) “inactive; negative”; (Test System: AMES SALMONELLA TYPHIMURIUM, Strain/Indicator: TA1535, Metabolic Activation: RAT, LIVER, S-9, Method: STANDARD PLATE) “inactive; negative”; (Test System: AMES SALMONELLA TYPHIMURIUM, Strain/Indicator: TA1537, Metabolic Activation: HAMSTER, LIVER, S-9, AROCLOR 1254, Method: STANDARD PLATE) “inactive; negative”; (Test System: AMES SALMONELLA TYPHIMURIUM, Strain/Indicator: TA1537, Metabolic Activation: HAMSTER, LIVER, S-9, Method: STANDARD PLATE) “inactive; negative”; (Test System: AMES SALMONELLA TYPHIMURIUM, Strain/Indicator: TA1537, Metabolic Activation: MOUSE, LIVER, S-9, AROCLOR 1254, Method: STANDARD PLATE) “inactive; negative”. Also, the mutagenic call was “inactive; negative” (Test System: AMES SALMONELLA TYPHIMURIUM, Strain/Indicator: TA1537, Metabolic Activation: MOUSE, LIVER, S-9, Method: STANDARD PLATE); “inactive; negative” under setting [3]; “inactive; negative” (Test System: AMES SALMONELLA TYPHIMURIUM, Strain/Indicator: TA1537, Metabolic Activation: RAT, LIVER, S-9, AROCLOR 1254, Method: STANDARD PLATE); “inactive; negative” (Test System: AMES SALMONELLA TYPHIMURIUM, Strain/Indicator: TA1537, Metabolic Activation: RAT, LIVER, S-9, Method: STANDARD PLATE); “inactive; negative” (Test System: AMES SALMONELLA TYPHIMURIUM, Strain/Indicator: TA1538, Metabolic Activation: HAMSTER, LIVER, S-9, AROCLOR 1254, Method: STANDARD PLATE); “inactive; negative” (Test System: AMES SALMONELLA TYPHIMURIUM, Strain/Indicator: TA1538, Metabolic Activation: HAMSTER, LIVER, S-9, Method: STANDARD PLATE). The mutagenic call (Test System: AMES SALMONELLA TYPHIMURIUM, Strain/Indicator: TA1538, Metabolic Activation: MOUSE, LIVER, S-9, AROCLOR 1254, Method: STANDARD PLATE) is “inactive; negative”; the mutagenic call (Test System: AMES SALMONELLA TYPHIMURIUM, Strain/Indicator: TA1538, Metabolic Activation: MOUSE, LIVER, S-9, Method: STANDARD PLATE) was “inactive; negative”; the mutagenic call (Test System: AMES SALMONELLA TYPHIMURIUM, Strain/Indicator: TA1538, Metabolic Activation: NONE, Method: STANDARD PLATE) is “inactive; negative”; the mutagenic call (Test System: AMES SALMONELLA TYPHIMURIUM, Strain/Indicator: TA1538, Metabolic Activation: RAT, LIVER, S-9, AROCLOR 1254, Method: STANDARD PLATE) was “inactive; negative”; the mutagenic call (Test System: AMES SALMONELLA TYPHIMURIUM, Strain/Indicator: TA1538, Metabolic Activation: RAT, LIVER, S-9, Method: STANDARD PLATE) is “inactive; negative”; the mutagenic call (Test System: E. COLI, Strain/Indicator: WP2 UVRA, Metabolic Activation: HAMSTER, LIVER, S-9, AROCLOR 1254, Method: STANDARD PLATE) was “inactive; negative”. Further, the mutagenic call is “inactive; negative” (Test System: E. COLI, Strain/Indicator: WP2 UVRA, Metabolic Activation: HAMSTER, LIVER, S-9, Method: STANDARD PLATE); “inactive; negative” (Test System: E. COLI, Strain/Indicator: WP2 UVRA, Metabolic Activation: MOUSE, LIVER, S-9, AROCLOR 1254, Method: STANDARD PLATE); “inactive; negative” (Test System: E. COLI, Strain/Indicator: WP2 UVRA, Metabolic Activation: MOUSE, LIVER, S-9, Method: STANDARD PLATE); “inactive; negative” (Test System: E. COLI, Strain/Indicator: WP2 UVRA, Metabolic Activation: NONE, Method: STANDARD PLATE); “inactive; negative” (Test System: E. COLI, Strain/Indicator: WP2 UVRA, Metabolic Activation: RAT, LIVER, S-9, AROCLOR 1254, Method: STANDARD PLATE); “inactive; negative” (Test System: E. COLI, Strain/Indicator: WP2 UVRA, Metabolic Activation: RAT, LIVER, S-9, Method: STANDARD PLATE).

For the molecule `CC(C)NO`, the mutagenic call was “active; positive” (Test System: CHINESE HAMSTER V-79, Strain/Indicator: V-79/6-THIOGUANINE, Metabolic Activation: NONE, Method: SUSPENSION) and “inactive; negative” (Test System: UDS RODENT HEPATOCYTES, Strain/Indicator: THY INCORP (NON-S-PHASE), Metabolic Activation: NONE, Method: LIQUID SCINTILLATION COUNTING).

As for `O=[N+]([O-])c1c(O)ccc2ccccc12`, the mutagenic call (Test System: AMES SALMONELLA TYPHIMURIUM, Strain/Indicator: TA98, Metabolic Activation: NONE, Method: PREINCUBATION) is “active; positive”.

As to `CN(C)C(=S)SNCCNSC(=S)N(C)C`, the mutagenic call is “active; positive” under setting [2] and “inactive; negative” (Test System: AMES SALMONELLA TYPHIMURIUM, Strain/Indicator: TA100, Metabolic Activation: S-9 MIX, Method: STANDARD PLATE).

On to `c1ccc2c(c1)-c1ccccc1C1NC21` (stereo unspecified), for which the mutagenic call by setting is: under setting [1], “active; positive”; under setting [3], “active; positive”; (Test System: CHINESE HAMSTER V-79, Strain/Indicator: V-79/6-THIOGUANINE, Metabolic Activation: NONE, Method: STANDARD PLATE) “active; positive”.

With `CCOC(=O)/C=C\C(=O)OCC`, under “Test System: MOUSE LYMPHOMA, Strain/Indicator: L5178Y (TK+/TK-), Metabolic Activation: NONE, Method: SUSPENSION/PLATE”, the mutagenic call was “active; positive”.
